Reference: the supplement of paper PMC10307832

Legend:
Experiment in all cases: relative viability (nuclei count vs DMSO), 5 days (fraction); higher = more cells survive
TPCA-1 + Vorinostat = compound: C1=CC(=CC=C1C2=CC(=C(S2)NC(=O)N)C(=O)N)F [TPCA-1] + O=C(CCCCCCC(=O)Nc1ccccc1)NO [Vorinostat] (partner 1 µM)
Procedure, shortened: (§1)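 After 5 days of treatment, lung cancer cells in 1536-well plates were fixed and stained in a single step (final 0.05% Triton X-100, 1% formaldehyde, 1 ug/ml Hoechst) and their nuclei counted on 4× images. Treatment had been applied by pin tool the day after seeding as one drug alone or as a fixed anchor-drug dose with five library-drug doses (not always all listed) in √10 steps. Relative viability is the nuclei count of treated wells divided by that of vehicle wells, and values are medians of duplicate plates.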

[1] = compound: C[C@]12O[C@H](C[C@]1(O)CO)n1c3ccccc3c3c4c(c5c6ccccc6n2c5c31)CNC4=O [Lestaurtinib] + C[C@]1(O)C[C@@H](c2nc(-c3ccc4ccc(-c5ccccc5)nc4c3)c3c(N)nccn32)C1 [Linsitinib] (partner 1 µM)
Procedure, shortened: as §1

TPCA-1 + Linsitinib = compound: C1=CC(=CC=C1C2=CC(=C(S2)NC(=O)N)C(=O)N)F [TPCA-1] + C[C@]1(O)C[C@@H](c2nc(-c3ccc4ccc(-c5ccccc5)nc4c3)c3c(N)nccn32)C1 [Linsitinib] (partner 1 µM)
Procedure, shortened: as §1

TPCA-1 + Palbociclib = compound: C1=CC(=CC=C1C2=CC(=C(S2)NC(=O)N)C(=O)N)F [TPCA-1] + CC(=O)c1c(C)c2cnc(Nc3ccc(N4CCNCC4)cn3)nc2n(C2CCCC2)c1=O [Palbociclib] (partner 0.5 µM)
Procedure, shortened: as §1

| Cell Line | relative viability (TPCA-1 + Vorinostat; first compound 0.04 µM) | relative viability (TPCA-1 + Vorinostat; first compound 0.1265 µM) | relative viability (TPCA-1 + Vorinostat; first compound 0.4 µM) | relative viability (TPCA-1 + Vorinostat; first compound 1.265 µM) | relative viability (TPCA-1 + Vorinostat; first compound 4 µM) | relative viability ([1]; first compound 0.005 µM) | relative viability ([1]; first compound 0.01581 µM) | relative viability ([1]; first compound 0.05 µM) | relative viability ([1]; first compound 0.1581 µM) | relative viability ([1]; first compound 0.5 µM) | relative viability (TPCA-1 + Linsitinib; first compound 0.04 µM) | relative viability (TPCA-1 + Linsitinib; first compound 0.1265 µM) | relative viability (TPCA-1 + Linsitinib; first compound 0.4 µM) | relative viability (TPCA-1 + Linsitinib; first compound 1.265 µM) | relative viability (TPCA-1 + Linsitinib; first compound 4 µM) | relative viability (TPCA-1 + Palbociclib; first compound 0.04 µM) | relative viability (TPCA-1 + Palbociclib; first compound 0.1265 µM) | relative viability (TPCA-1 + Palbociclib; first compound 0.4 µM) | relative viability (TPCA-1 + Palbociclib; first compound 1.265 µM) | relative viability (TPCA-1 + Palbociclib; first compound 4 µM) |
| --- | --- | --- | --- | --- | --- | --- | --- | --- | --- | --- | --- | --- | --- | --- | --- | --- | --- | --- | --- | --- |
| NCI-H650 | 0.414 | 0.402 | 0.41 | 0.308 | 0.27 | 0.79 | 0.915 | 0.503 | 0.455 | 0.179 | 1.08 | 0.755 | 0.89 | 0.382 | 0.465 | 0.347 | 0.323 | 0.343 | 0.266 | 0.279 |
| EKVX | 0.724 | 0.622 | 0.766 | 0.76 | 0.654 | 1.03 | 1.13 | 0.949 | 1.08 | 0.552 | 1.1 | 0.868 | 1.08 | 0.69 | 0.846 | 0.451 |  | 0.469 | 0.269 | 0.394 |
| NCI-H460 | 0.878 | 0.686 |  | 0.682 | 0.563 | 0.24 | 0.433 | 0.17 | 0.262 | 0.0291 | 0.946 | 0.737 | 0.735 | 0.339 | 0.286 | 0.187 | 0.086 |  | 0.16 | 0.136 |
| LCLC-97TM1 | 0.844 | 0.488 | 0.905 | 0.365 | 0.0988 | 0.2 | 0.172 | 0.153 | 0.135 | 0.113 | 0.206 | 0.188 | 0.166 | 0.15 | 0.159 | 0.231 | 0.2 | 0.199 | 0.232 | 0.206 |
| COR-L23 | 0.502 | 0.424 | 0.484 | 0.292 | 0.153 | 1 | 0.858 |  | 0.471 | 0.153 | 1.01 | 0.771 | 0.975 | 0.821 | 0.565 | 0.316 | 0.289 | 0.272 | 0.206 | 0.169 |
| NCI-H1355 | 0.735 | 0.603 | 0.611 | 0.582 | 0.553 | 0.795 | 0.838 | 0.546 | 0.451 | 0.302 | 0.99 | 0.709 | 0.737 | 0.711 | 0.667 | 0.455 | 0.395 | 0.408 | 0.389 | 0.361 |
| NCI-H1666 | 1.08 | 0.966 | 1.02 | 0.988 | 1.1 | 0.926 | 1.04 | 0.847 | 0.475 | 0.501 | 0.756 | 0.688 | 0.785 | 0.993 | 0.723 | 0.653 | 0.661 | 0.605 | 0.673 | 0.64 |
| EPLC-272H | 0.53 | 0.403 | 0.523 | 0.256 | 0.258 | 1.13 | 1.05 | 0.517 | 0.54 | 0.577 | 1.3 | 1.09 | 1.33 | 1.03 | 1.01 | 0.355 | 0.3 | 0.328 | 0.326 | 0.297 |
